According to ChEMBL document CHEMBL1144776, “Anti-inflammatory constituents of the red alga Gracilaria verrucosa and their synthetic analogues” (J Nat Prod, 2008):
Active and inactive are the calls of the source. The calls are words filed in the database; no cut-off is given here.

Tests used:
Format in all cases: functional, cell-based
RAW264.7 [1] = assay: Antiinflammatory activity in mouse RAW264.7 cells assessed as inhibition of LPS-stimulated NO production at 5 to 20 ug/mL after 24 hrs by […]
RAW264.7 [2] = assay: Antiinflammatory activity in mouse RAW264.7 cells assessed as inhibition of LPS-stimulated nitric oxide production after 24 hrs by […]; settings: RAW264.7, 24 h
RAW264.7 [3] = assay: Suppression of iNOS mRNA expression in mouse RAW264.7 cells

| Structure (SMILES) | Activity (RAW264.7 [1]) | IC50 (RAW264.7 [2]) [µM] | Activity (RAW264.7 [3]) |
| --- | --- | --- | --- |
| CCCCCCCC/C=C(\C(=O)CCCCCCC(=O)O)c1ccccc1 | inactive | – | – |
| CCCCCCC/C=C(\C(=O)CCCCCCCC(=O)OC)c1ccccc1 | inactive | – | – |
| CCCCCCC/C=C(\C(=O)CCCCCCCC(=O)O)c1ccccc1 | inactive | – | – |
| CCCCCCCCC(=O)/C=C/CCCCCCC(=O)O | – | < 33.8 | Active |
| CCCCCCCC(=O)/C(=C\CCCCCCCC(=O)OC)c1ccccc1 | inactive | – | – |
| CCCCCCC/C=C/C(=O)CCCCCCCC(=O)O | – | < 33.8 | Active |
